Experimental data as given in PubChem BioAssay AID651642 (Sanford-Burnham Center for Chemical Genomics, 2012).

Legend:
[1] = tested on: H9c2; experiment: protection of cardiomyocytes from stress damage, SAR follow-up, cell-based, panel, H9c2 and HL-1, H2O2, 2-deoxyglucose, ATP luminescence (AID 651642)
[2] = tested on: HL-1; experiment: as above
[3] = H9c2/HL-1 cardiomyocyte 2-deoxyglucose damage, mean of runs, with 2-deoxyglucose, mean IC50 across panel
[4] = H9c2/HL-1 cardiomyocyte 2-deoxyglucose damage, run 1, with 2-deoxyglucose
[5] = H9c2/HL-1 cardiomyocyte 2-deoxyglucose damage, run 2, with 2-deoxyglucose
[6] = H9c2/HL-1 cardiomyocyte 2-deoxyglucose damage, run 3, with 2-deoxyglucose
[7] = H9c2/HL-1 cardiomyocyte 2-deoxyglucose damage, run 4, with 2-deoxyglucose
[8] = H9c2/HL-1 cardiomyocyte H2O2 oxidative damage, mean of runs, with H2O2, mean IC50 across panel
[9] = H9c2/HL-1 cardiomyocyte H2O2 oxidative damage, run 1, with H2O2
[10] = H9c2/HL-1 cardiomyocyte H2O2 oxidative damage, run 2, with H2O2
[11] = H9c2/HL-1 cardiomyocyte H2O2 oxidative damage, run 3, with H2O2
[12] = H9c2/HL-1 cardiomyocyte H2O2 oxidative damage, run 4, with H2O2

| SMILES | IC50 [1, 3] | IC50 [1, 4] | IC50 [1, 5] | IC50 [1, 6] | IC50 [1, 7] | IC50 [1, 8] | IC50 [1, 9] | IC50 [1, 10] | IC50 [1, 11] | IC50 [1, 12] | IC50 [2, 3] | IC50 [2, 4] | IC50 [2, 5] | IC50 [2, 6] | IC50 [2, 7] | IC50 [2, 8] | IC50 [2, 9] | IC50 [2, 10] | IC50 [2, 11] | IC50 [2, 12] |
| --- | --- | --- | --- | --- | --- | --- | --- | --- | --- | --- | --- | --- | --- | --- | --- | --- | --- | --- | --- | --- |
| CCOC(=O)c1cccc(NC(=O)CNC(=O)c2cc(-c3cc(OC)c(OC)c(OC)c3)nc3ccc(OC)cc23)c1 | 3.16 µM | 4.42 µM | 4.8 µM | 1.68 µM | 1.75 µM | 0.739 µM | 0.965 µM | 0.974 µM | 0.483 µM | 0.534 µM | 2.3 µM | 1.59 µM | 1.73 µM | 2.93 µM | 2.94 µM | 3.57 µM | 3.75 µM | 3.81 µM | 2.62 µM | 4.12 µM |
| COC(=O)CNC(=O)c1cccc(NC(=O)c2cc(-c3cc(OC)c(OC)c(OC)c3)nc3ccccc23)c1 | 7.56 µM | 8.88 µM | 9.26 µM | 5.76 µM | 6.35 µM |  | > 79 µM | 1.7 µM | > 79 µM | > 79 µM | 1.96 µM | 1.26 µM | 1.4 µM | 2.32 µM | 2.86 µM | 4.24 µM | 2.55 µM | 3.43 µM | 4.67 µM | 6.3 µM |
| COc1cc(-c2cc(C(=O)NCC(=O)Nc3cccc(C(C)=O)c3)c3cc(Br)ccc3n2)cc(OC)c1OC | 6.44 µM | 8.22 µM | 8.41 µM | 4.43 µM | 4.71 µM | 1.26 µM | 1.48 µM | 1.49 µM | 1.02 µM | 1.06 µM | 3.83 µM | 2.44 µM | 4.64 µM | 3.4 µM | 4.85 µM | 3.34 µM | 3.56 µM | 3.69 µM | 2.7 µM | 3.41 µM |
| COc1ccc2c(c1OC)C(=O)N1c3ccccc3C(=O)N(Cc3ccc(C)cc3C)C21 (centres undefined) | > 79 µM | > 79 µM | > 79 µM | > 79 µM | > 79 µM | > 79 µM | > 79 µM | > 79 µM | > 79 µM | > 79 µM | > 79 µM | > 79 µM | > 79 µM | > 79 µM | > 79 µM |  | > 79 µM | > 79 µM | > 79 µM | > 79 µM |
| CCOC(=O)c1cccc(NC(=O)CNC(=O)c2cc(-c3cc(OC)c(OC)c(OC)c3)nc3ccc(C)cc23)c1 | 2.67 µM | 3.13 µM | 3.54 µM | 1.85 µM | 2.18 µM | 0.665 µM | 0.726 µM | 0.842 µM | 0.517 µM | 0.577 µM | 2.2 µM | 1.1 µM | 1.45 µM | 2.9 µM | 3.35 µM | 3.04 µM | 2.88 µM | 3.32 µM | 1.46 µM | 4.48 µM |
| COc1ccc2c(c1OC)C(=O)N1c3ccccc3C(=O)N(Cc3ccc(F)cc3)C21 (centres undefined) | > 79 µM | > 79 µM | > 79 µM | > 79 µM | > 79 µM |  | > 79 µM | 8.03 µM | > 79 µM | > 79 µM | 19 µM | 6.14 µM | 10.7 µM | 17.7 µM | 41.3 µM | > 79 µM | > 79 µM | > 79 µM | > 79 µM | > 79 µM |
| COc1ccc2c(c1OC)C(=O)N1c3ccccc3C(=O)N(Cc3cccc(Cl)c3Cl)C21 (centres undefined) | 8.9 µM | 9.42 µM | 12.2 µM | 6.65 µM | 7.38 µM |  | 0.447 µM | 0.739 µM | > 79 µM | > 79 µM | 1.48 µM | 0.792 µM | 0.807 µM | 1.98 µM | 2.35 µM | > 79 µM | > 79 µM | > 79 µM | > 79 µM | > 79 µM |
| COc1ccc2c(c1OC)C(=O)N1c3ccccc3C(=O)N(Cc3ccccc3)C21 (centres undefined) |  | 44.9 µM | 49.1 µM | > 79 µM | > 79 µM |  | 3.56 µM | 4.07 µM | > 79 µM | > 79 µM | 10.2 µM | 3.57 µM | 4.36 µM | 13.8 µM | 18.9 µM | > 79 µM | > 79 µM | > 79 µM | > 79 µM | > 79 µM |
